According to PMC11859236, “A Sequential Ultrafiltration Method to Enhance the Accuracy and Throughput in Plasma Protein Binding Tests” (Pharmaceutics, 2025):
Where a name gives a salt, the structure may show the parent alone. Read-outs that look alike come from different tables or passages of the source.

What was measured:
plasma proteins [1] = assay: Mass balance UF, plasma protein binding; details: for Plasma protein binding (%): Mass balance UF, rat plasma, mean (±SD)
Method: Washing procedures were performed in accordance with established methods for conventional ultrafiltration. Further procedures were conducted as per the protocols outlined by Wang and Williams. […] Following centrifugation, the filter was carefully detached from the FT tube, and the filtrate was removed. The filter was then inverted and transferred to a new retentate collection tube (RT tube), where it underwent a second centrifugation at 1000× g for 2 min at 25 °C. The retentate was subsequently extracted from the RT tube (Figure 2A).
In this equation, CR and VR represent the concentration and volume of the retentate obtained from the final RT tube, while CF and VF denote the concentration and volume of the filtrate collected from the FT tube.

plasma proteins [2] = assay: Sequential UF, plasma protein binding; details: for Plasma protein binding (%): Sequential UF, rat plasma, mean (±SD)
Method: (§1) Rat plasma was collected from male Sprague Dawley rats purchased from Orient Bio Inc. (Seongnam, Republic of Korea). The plasma was separated from whole blood samples using centrifugation and was utilized immediately for the PPB test.
(§2) All compounds, with the exception of otaplimastat and ciclopirox, were added to 1 mL of blank plasma to achieve a drug concentration of 10 μM. Otaplimastat and ciclopirox were examined at concentrations of 5 μM and 1 μg/mL, respectively. The compound-added plasma samples were incubated in a water bath at 37 °C and agitated at 50 rpm for two hours prior to the PPB test.
(§3) A volume of 0.5 mL of the plasma sample was initially loaded onto the filter within the FT tube. The tube was then subjected to centrifugation at 14,000× g for 2 min at a temperature of 25 °C, serving as the pre-ultrafiltration (pre-UF) step.
(§4) The bound and unbound plasma fractions were subjected to linear regression analysis, with the regression line established by constraining the y-intercept to zero [14].

[3] = cited from earlier work
Log p (lipophilicity) = assay type: physicochemical; details: in-house unpublished data
Source text: Table 2 Log p value of the test compounds. | column: Log p

plasma proteins [4] = details: male, Sprague Dawley, rat, 2 h, 10 μM
Method: as §1, §2, §3, §4

plasma proteins [5] = assay: Conventional UF with NSB correction using PBS, plasma protein binding; assay type: in vitro ADME; details: male, Sprague Dawley, rat plasma, conventional UF with NSB correction by PBS, mean ± SD, read-out: percentage of PPB (converted)
Method: The device used in the experiment was Amicon® Ultra, which is commonly used in UF experiments. UF was conducted following the manufacturer's user guide. Briefly, the centrifugal filter units were washed once with 0.1N NaOH and then twice with double-distilled water by centrifugation at 14,000× g for 15 min. […] The exact process was performed using phosphate-buffered saline (PBS) instead of plasma to obtain a filtrate solution for correction with PBS [13]. […] In this equation, CSB indicates the concentration of the buffer sample, while CFB signifies the concentration of the filtrate sample derived from ultrafiltration using the buffer.

plasma proteins [6] = tested on: plasma proteins; set-up: method as in PMID 11709325; details: equilibrium dialysis; cited from earlier work
plasma proteins [7] = assay: Conventional UF without NSB correction, plasma protein binding; assay type: in vitro ADME, rat; details: male, Sprague Dawley
Method: The device used in the experiment was Amicon® Ultra, which is commonly used in UF experiments. UF was conducted following the manufacturer's user guide. Briefly, the centrifugal filter units were washed once with 0.1N NaOH and then twice with double-distilled water by centrifugation at 14,000× g for 15 min. […] The exact process was performed using phosphate-buffered saline (PBS) instead of plasma to obtain a filtrate solution for correction with PBS [13].

[8] = male, Sprague Dawley, rat, plasma

Cc1cc(C2CCCCC2)n(O)c(=O)c1 [Ciclopirox]
fraction unbound at 2 h, 1 μg/mL (plasma proteins [1]; [8]): 0.0285 | fraction unbound at 2 h, 1 μg/mL (plasma proteins [2]; [8]): 0.0129 | Log p [3]: 2.73

CCc1c2c(nc3ccc(OC(=O)N4CCC(N5CCCCC5)CC4)cc13)-c1cc3c(c(=O)n1C2)COC(=O)[C@]3(O)CC [Irinotecan, irinotecan hydrochloride]
Log p [3]: 4.18

CC(=O)N(CCCCNCCCn1c(=O)[nH]c2ccccc2c1=O)CCCn1c(=O)[nH]c2ccccc2c1=O [Otaplimastat]
Plasma protein binding (%) (plasma proteins [1]; 5 μM): 50.63 (±11.71) % | Plasma protein binding (%) (plasma proteins [2]; 5 μM): 57.61 (±3.39) % | Log p (Log p (lipophilicity)): 2.67

O=c1c(O)c(-c2ccc(O)c(O)c2)oc2cc(O)cc(O)c12 [Quercetin, quercetin]
difference between CR and CF (retentate and filtrate concentration) (plasma proteins [1]; male, Sprague Dawley, rat, 2 h, 10 μM): 1000 fold | fraction unbound at 2 h, 10 μM (plasma proteins [1]; [8]): 0.0039 | fraction unbound at 2 h, 10 μM (plasma proteins [2]; [8]): 0.0008 | absolute difference in PPB between sequential UF and mass balance UF (plasma proteins [4]): 0.31% | Log p [3]: 1.82

COC(=O)c1ccccc1-c1c2ccc(=N)cc-2oc2cc(N)ccc12 [Rhodamine 123, rhodamine 123]
fraction unbound at 2 h, 10 μM (plasma proteins [5]): 0.33 | fraction unbound at 2 h, 10 μM (plasma proteins [1]; [8]): 0.3 | fraction unbound at 2 h, 10 μM (plasma proteins [2]; [8]): 0.25 | protein binding, literature value (plasma proteins [6]): 70% | Log p [3]: 1.06 | fraction unbound at 2 h, 10 μM (plasma proteins [7]; rat plasma, conventional UF without NSB correction, mean ± SD, read-out: percentage of PPB (converted)): 0.103 | excess of PPB by conventional UF without NSB correction over PPB with NSB correction using PBS (plasma proteins [7]; rat, 2 h, 10 μM): 22.6%

CCc1c2c(nc3ccc(O)cc13)-c1cc3c(c(=O)n1C2)COC(=O)[C@]3(O)CC [SN-38]
Plasma protein binding (%) (plasma proteins [1]; 10 μM): 95.69 (±1.58) % | Plasma protein binding (%) (plasma proteins [2]; 10 μM): 95.47 (±0.88) % | Log p [3]: 2.31
